Test results: US20240376122A1, “SMALL MOLECULE COMPOUNDS” (APERTOR PHARMACEUTICALS, INC., priority 2021, published 2024)

Experiments:
[1] = tested on: Saccharomyces cerevisiae BY4742; assay: Anti-yeast activity assay (minimum inhibitory concentration); assay type: cell-based; details: YPD media, 96-well plates, 30° C. for 16 hours without shaking, lowest concentration with no obvious culture growth, triplicate, read-out: MIC against Saccharomyces cerevisiae BY4742
Method: A single colony of Saccharomyces cerevisiae BY4742 was inoculated into 2 mL YPD media in a 5 mL falcon tube to grow overnight at 30° C. The overnight culture was inoculated into 5 mL YPD media in a glass tube at OD600-0.1, and the new culture was grown at 30° C. until OD600 reached 0.5. The culture was then diluted to OD600-0.01 and aliquoted into 96-well plates at 100 μL per well. The compound was dissolved in ethanol at 75 μM. Three-fold serial dilutions were conducted for the Compound 10 times using ethanol, respectively. 4 μL of each concentration compound solution was added and mixed with 384 μL YPD media. 100 μL of the YPD media solutions were mixed with the Saccharomyces cerevisiae cultures in 96-well plates by pipette, respectively. The plates were incubated at 30° C. for 16 hours without shaking. The lowest Compound concentrations in wells that have no obvious culture growth were defined as the minimum inhibitory concentrations (MICs). The assays were conducted in triplicate.

[2] = observed in humans; cited from earlier work

| Compound | MIC [1] [µM] | terminal half-life [2] [h] |
| --- | --- | --- |
| CO[C@@H]1/C(C)=C/C=C/C=C/[C@@H](C)C[C@@H](C)C(=O)[C@H](OC)[C@H](O)/C(C)=C/[C@@H](C)C(=O)C[C@@H]([C@H](C)C[C@@H]2CC[C@@H](O)[C@H](OC)C2)OC(=O)[C@@H]2CCCCN2C(=O)C(=O)[C@]2(O)O[C@@H](CC[C@H]2C)[C@H]1C (single isomer, unassigned) [Compound 15] | < 0.0556 |  |
| CO[C@H]1C[C@@H]2CC[C@@H](C)[C@@](O)(O2)C(=O)C(=O)N2CCCC[C@H]2C(=O)O[C@H]([C@H](C)C[C@@H]2CC[C@@H](O)[C@H](OC)C2)CC(=O)[C@H](C)/C=C(\C)[C@@H](O)[C@@H](OC)C(=O)[C@H](C)C[C@H](C)/C=C/C=C/C=C/1C [rapamycin] |  | 24 to 48 |
